Source: patent publication US9701711B2, “Modulators of protease activated receptors” (THE UNIVERSITY OF QUEENSLAND, priority 2010, dated 2017)
Values joined by “and” are separate entries in the source; they are usually repeats but may differ in a detail not shown here. Equal entries are not always repeated. Where two headings read alike, the source gives them in different places.

What was measured:
PAR2 [1] = biological target: T1, PAR2 (Homo sapiens, UniProt P55085); assay: PAR2 agonist inhibition (antagonism) by intracellular Ca2+ release in HT29 cells; assay type: cell-based; parameters: Agonists of Ca^2+ release in HT29 cells; endogenous in cells; host or cells: HT29 (human cell line, cultured per ATCC information)
T1 sequence (P55085 26-397): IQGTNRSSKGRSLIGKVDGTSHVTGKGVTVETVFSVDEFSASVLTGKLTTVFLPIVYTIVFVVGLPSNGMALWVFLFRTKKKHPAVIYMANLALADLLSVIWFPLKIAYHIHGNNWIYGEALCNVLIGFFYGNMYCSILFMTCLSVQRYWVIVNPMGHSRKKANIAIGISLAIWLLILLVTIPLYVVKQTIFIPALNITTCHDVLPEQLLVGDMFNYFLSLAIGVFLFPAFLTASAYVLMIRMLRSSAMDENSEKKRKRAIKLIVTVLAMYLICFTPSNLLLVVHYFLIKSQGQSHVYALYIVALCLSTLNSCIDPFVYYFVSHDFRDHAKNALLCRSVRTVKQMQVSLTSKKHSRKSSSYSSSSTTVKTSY
Description: (§1) The ability of the compounds of the present invention to activate PAR2 may be assessed via calcium mobilisation assays. It is appreciated that compounds that activate the release of intracellular calcium from one type of cell are agonists or partial agonists, while those that inhibit such release may be antagonists. […] The general assay protocols may vary slightly depending on the chosen cell line. In general, during cell culture passage, cell dissociation solution (CDS, Sigma Aldrich) is used to replace trypsin to dissociate cells from surface. Lipopolysaccharide (LPS) and trypsin are purchased from Sigma Aldrich. […] ELISA sets are purchased from BD Pharmingen (San Jose, Calif.) and cytokine array kits are purchased from RayBiotecho (Norcross, Ga.).
(§2) Cells are seeded overnight in 96-well black walled, clear bottomed, plate at approximately 2×10^4 to 4×10^5 cells per well. […] The cells are then washed twice with HBSS and transferred to a Polarstar spectrotluorimeter (BMG, Durham N.C.).
The cells are prepared as outlined above then treated with the “putative” antagonist 30 min prior to the addition of either trypsin or a synthetic agonist at a concentration equal to the agonists ED80.
The cells were then treated with 1 μM of the PAR2 agonist 2f-LIGRLO-NH2 (FIG. 2A. n=5) or 100 nM Trypsin (FIG. 2B, n=1). Each data point represents mean±SEM. Net changes in fluorescence were calculated as a percentage relative to the maximum response given 1 μM 2f-LIGRLO-NH2 or 100 nM Trypsin. Changes in fluorescence (% response) were plotted against logarithmic compound concentrations. The half maximal inhibitory concentration (IC50) values were derived from the dose response curve using a nonlinear regression curve in Graphpad Prism v5.

PAR2 [2] = biological target: T1, PAR2; assay: PAR2 activation (agonist) by intracellular calcium mobilisation in HT29 cells; assay type: cell-based; parameters: Agonists of Ca^2+ release in HT29 cells; endogenous in cells; host or cells: HT29 (human cell line, cultured per ATCC information); settings: for EC50: Fluo-3 fluorescence
Description: as §1, §2
HBSS is prepared in-house and all other reagents are purchased from Invitrogen, Carlsbad. Plates are supplied by DKSH, Zurich. Calcimycin (A23187, Invitrogen) is used to measure maximum fluorescence, with individual results normalized accordingly.
Three different concentrations of 6 added to HT29 cells at room temperature. Duplicate measurements were made for each data point, accordingly, each data point represents mean±SEM. Net changes in fluorescence were calculated as a percentage relative to the maximum response given by 100 μM of the PAR2 agonist 2f-LIGRLO-NH2.

[3] = HT29 cells, 30 min pre-incubation, then PAR2 agonist (1 μM 2f-LIGRLO-NH2), read-out: IC50, inhibition of Ca2+ release in HT29 cells
[4] = read-out: EC50, agonist or partial agonist of Ca2+ release in HT29 cells
[5] = EC50, agonist or partial agonist of Ca2+ release in HT29 cells

Row | Structure (SMILES) | IC50 (PAR2 [1]; [3]) [µM] | EC50 (PAR2 [2]; [4]) | other results
1 | CCC(C)Oc1ccccc1CNC(=O)[C@@H](NC(=O)[C@H](CC1CCCCC1)NC(=O)c1ccno1)[C@@H](C)CC (some centres unmarked) [Compound 25] | – | – | IC50 (PAR2 [1]): 1.6 ± 0.4 µM
2 | CC[C@H](C)[C@H](NC(=O)[C@H](CC1CCCCC1)NC(=O)c1ccno1)C(=O)NCc1cccc2c1OCO2 [Compound 26, 5-isoxazoyl-Cha-Ile-aminomethyl-(1,3-dioxalane)phenyl] | 0.4 ± 0.1 | – | –
3 | CC[C@H](C)[C@H](NC(=O)[C@H](CC1CCCCC1)NC(=O)c1ccno1)C(=O)N1CCN(c2ccc(F)cc2)CC1 [Compound 10] | – | 10 µM | –
4 | CC[C@H](C)[C@H](NC(=O)[C@H](CC1CCCCC1)NC(=O)c1ccno1)C(=O)N1CCc2cc(OC)c(OC)cc2C1 [Compound 11] | – | 5 to 10 µM | –
5 | COc1ccccc1CNC(=O)[C@@H](NC(=O)[C@H](CC1CCCCC1)NC(=O)c1ccno1)[C@@H](C)OC [Compound 40, 5-isoxazoyl-Cha-Thr(Me)-aminomethyl-(2-methoxy)phenyl] | 1.3 | – | –
6 | CC[C@H](C)[C@H](NC(=O)[C@H](CC1CCCCC1)NC(=O)c1ccno1)C(=O)NCc1cccc(C(=O)N2CCC(NCCN)(C(=O)NCc3ccccc3)CC2)c1 [Compound 29] | 0.7 | – | –
7 | CC[C@H](C)[C@H](NC(=O)[C@H](CC1CCCCC1)NC(=O)c1ccno1)C(=O)NCc1ccc(F)cc1 [Compound 8] | – | 40 µM | –
8 | CC[C@H](C)[C@H](NC(=O)[C@H](CC1CCCCC1)NC(=O)c1ccno1)C(=O)N1CCC2(CCc3ccccc3O2)CC1 [Compound 37, 5-isoxazoyl-Cha-Ile-spiro[chroman-2,4′-piperidine]] | 5 to 10 | – | –
9 | CC[C@H](C)[C@H](NC(=O)[C@H](CC1CCCCC1)NC(=O)c1ccno1)C(=O)NCc1cccc(F)c1 [Compound 7] | – | 40 µM | –
10 | CC[C@H](C)[C@H](NC(=O)[C@H](CC1CCCCC1)NC(=O)c1ccno1)C(=O)N1CCCC(Nc2cccc(C(F)(F)F)c2)C1 (some centres unmarked) [Compound 38] | 6 | – | –
11 | CC[C@H](C)[C@H](NC(=O)[C@H](CC1CCCCC1)NC(=O)c1ccno1)C(=O)N1CCC(c2ccc(OC)cc2)CC1 [Compound 31] | 10 | – | –
12 | CCCCOc1ccccc1CNC(=O)[C@@H](NC(=O)[C@H](CC1CCCCC1)NC(=O)c1ccno1)[C@@H](C)CC [Compound 23] | 40 | – | –
13 | CC[C@H](C)[C@H](NC(=O)[C@H](CC1CCOCC1)NC(=O)c1ccno1)C(=O)N1CCC2(C=Cc3ccccc32)CC1 [Compound 43] | 60 | – | –
14 | CC[C@H](C)[C@H](NC(=O)[C@H](CC1CCCCC1)NC(=O)c1ccno1)C(=O)NCc1ccccc1C(F)(F)F [Compound 28] | 1 to 2 | – | –
15 | CC[C@H](C)[C@H](NC(=O)[C@H](CC1CCCCC1)NC(=O)c1ccno1)C(=O)NCc1ccccc1[N+](=O)[O-] [Compound 9] | – | 10 µM | –
16 | CC[C@H](C)[C@H](NC(=O)[C@H](CC1CCCCC1)NC(=O)c1ccno1)C(=O)N1CCC(c2cc(OC)ccc2OC)CC1 [Compound 32] | 5 to 10 | – | –
17 | CC[C@H](C)[C@H](NC(=O)[C@H](CC1CCCCC1)NC(=O)c1ccno1)C(=O)N1CCCC[C@H]1C(=O)NC(C)(C)C [Compound 36] | 8.6 ± 2.6 | – | –
18 | CC[C@H](C)[C@H](NC(=O)[C@H](CC1CCCCC1)NC(=O)c1ccno1)C(=O)NCc1ccccc1 [Compound 3] | – | 30 µM | –
19 | CCCOc1ccccc1CNC(=O)[C@@H](NC(=O)[C@H](CC1CCCCC1)NC(=O)c1ccno1)[C@@H](C)CC [Compound 22] | 2 | – | –

Row | Structure (SMILES) | IC50 (PAR2 [1]; [3]) [µM] | EC50 (PAR2 [2]; [4]) | other results
20 | CC[C@H](C)[C@H](NC(=O)[C@H](CC1CCCCC1)NC(=O)c1ccno1)C(=O)N1CCC2(CC1)CN(S(C)(=O)=O)c1ccccc12 [Compound 13] | – | 1.8 µM | –
21 | CC[C@H](C)[C@H](NC(=O)[C@H](CC1CCCCC1)NC(=O)c1ccno1)C(=O)N1CCC2(CC1)OC(=O)c1ccccc12 [Compound 14] | – | – | EC50 (PAR2 [2]; [5]): 1.3 µM
22 | CC[C@H](C)[C@H](NC(=O)[C@H](CC1CCCCC1)NC(=O)c1ccno1)C(=O)N(C)Cc1ccccc1OC [Compound 39, 5-isoxazoyl-Cha-Ile-aminodimethyl-(2-methoxy)phenyl] | 6.4 | – | –
23 | CCOc1ccccc1CNC(=O)[C@@H](NC(=O)[C@H](CC1CCCCC1)NC(=O)c1ccno1)[C@@H](C)CC [Compound 21] | 0.7 ± 0.1 | – | –
24 | CC[C@H](C)[C@H](NC(=O)[C@H](CC1CCCCC1)NC(=O)c1ccno1)C(=O)N1CCC(c2ccccc2-c2ccccc2)CC1 [Compound 34] | 25 | – | –
25 | CC[C@H](C)[C@H](NC(=O)[C@H](CC1CCCCC1)NC(=O)c1ccno1)C(=O)N1CCC2(CC1)CC(=O)c1ccccc1O2 [Compound 15] | – | – | EC50 (PAR2 [2]; [5]): 0.76 µM
26 | CC[C@H](C)[C@H](NC(=O)[C@H](CC1CCCCC1)NC(=O)c1ccno1)C(=O)NCc1ccc(OC)cc1 [Compound 4] | – | 10 µM | –
27 | CC[C@H](C)[C@H](NC(=O)[C@H](CC1CCCCC1)NC(=O)c1ccno1)C(=O)N1CCC2(CC1)c1ccccc1C(O)C2O (some centres unmarked) [Compound 16] | – | 5 to 7 µM | –
28 | CC[C@H](C)[C@H](NC(=O)[C@H](CC1CCCCC1)NC(=O)c1ccno1)C(=O)N1CCC(Cc2ccccc2)CC1 [Compound 35] | 8 | – | –
29 | CC[C@H](C)[C@H](NC(=O)[C@H](CC1CCCCC1)NC(=O)c1ccno1)C(=O)NCc1cccc(OC)c1 [Compound 19] | 0.5 ± 0.1 | – | –
30 | CC[C@H](C)[C@H](NC(=O)[C@H](CC1CCCCC1)NC(=O)c1ccno1)C(=O)N1CCC(NC(C)=O)(c2ccccc2)CC1 [Compound 12] | – | 1 to 6 µM | –
31 | CC[C@H](C)[C@H](NC(=O)[C@H](CC1CCCCC1)NC(=O)c1ccno1)C(=O)NCc1ccccc1F [Compound 6, 5-isoxazoyl-Cha-Ile-aminomethyl-(2-fluoro)phenyl] | – | ~30 µM and 30 µM | Emax at 30 µM (PAR2 [2]; HT-29, compound at 30 μM, room temperature, read-out: Response relative to the maximum response given by 100 μM 2f-LIGRLO-NH2): ≤ 50%
32 | CC[C@H](C)[C@H](NC(=O)[C@H](CC1CCCCC1)NC(=O)c1ccno1)C(=O)NCc1ccc(Cl)c(Cl)c1 [Compound 27, 5-isoxazoyl-Cha-Ile-aminomethyl-(3,4-dichloro)phenyl] | 1.4 ± 0.8 | – | –
33 | CC[C@H](C)[C@H](NC(=O)[C@H](CC1CCCCC1)NC(=O)c1ccno1)C(=O)NCc1ccccc1OC(C)C [Compound 24, 5-isoxazoyl-Cha-Ile-aminomethyl-(2-isopropoxy)phenyl] | 1.3 ± 0.1 | – | –
34 | CC[C@H](C)[C@H](NC(=O)[C@H](CC1CCCCC1)NC(=O)c1ccno1)C(=O)N1CCC2(CC1)c1ccccc1C(NCc1ccc(F)cc1)C2O (some centres unmarked) [Compound 17] | – | 20 µM | –
35 | CC[C@H](C)[C@H](NC(=O)[C@H](CC1CCCCC1)NC(=O)c1ccno1)C(=O)N1CCC(c2ccccc2C(F)(F)F)CC1 [Compound 33] | 10 | – | –
36 | CC[C@H](C)[C@H](NC(=O)[C@H](CC1CCCCC1)NC(=O)c1ccno1)C(=O)NCc1ccccc1C [Compound 20] | 0.5 ± 0.1 | – | –
37 | CC[C@H](C)[C@H](NC(=O)[C@H](CC1CCCCC1)NC(=O)c1ccno1)C(=O)NCc1ccccc1Cl [Compound 5] | – | 10 µM | –
